According to patent US20130137865A1 (TAISHO PHARMACEUTICAL CO., LTD., priority 2010, published 2013):

Biological target: T1, rat mGlu2 receptor (Rattus norvegicus, UniProt P31421)
T1 construct: expressed in transfected cells; host or cells: CHO cells
Experiment: [35S]GTPγS binding test (1), membranes of CHO cells stably expressing rat mGlu2
Type: biochemical
Conditions: inhibition of glutamic acid (20 μM)-stimulated specific [35S]GTPγS binding
Protocol: (Preparation of Crude Membrane Fraction of CHO Cells Stably Expressing the Rat Metabotropic Glutamate Receptor (mGlu2))
CHO cells stably expressing the rat mGlu2 receptor were cultured in a 10% dialyzed fetal bovine serum-containing Dulbecco's Modified Eagle's Medium [1% proline, 50 units/mL penicillin, 50 μg/mL streptomycin, and 2 mM L-glutamine (to be added when used)] at 37° C. in 5% CO2. Confluent cells were washed with PBS(−) twice, and were then harvested with a cell scraper. Then, the cells were centrifuged at 4° C. at 1000 rpm for 5 minutes to collect. The obtained precipitate was suspended in a 20 mM HEPES buffer (pH 7.4), and then homogenized with a Teflon® homogenizer. The resultant was centrifuged at 4° C. at 48,000×g for 20 minutes to obtain a precipitate again. The obtained precipitate was washed twice by centrifugation, and was then homogenized with the above-mentioned buffer, so as to obtain a crude membrane fraction. The obtained crude membrane fraction was preserved at −80° C.
The frozen membrane fraction as prepared above was thawed when used, and it was then diluted with a binding test buffer (final concentration: 20 mM HEPES, 100 mM NaCl, 10 mM MgCl2, 8.4 μM GDP, 10 μg/mL saponin, and 0.1% BSA). The compound of the Example was added to a membrane fraction (10 μg protein/assay), and the obtained mixture was then incubated at 30° C. for 20 minutes. Thereafter, glutamic acid (final concentration: 20 μM) and [^35S]GTPγS (final concentration: 0.15 nM) were added to the reaction mixture, and then incubated at 30° C. for 1 hour. After completion of the incubation, the reaction mixture was subjected to filtration over a Whatman GF/C filter that had previously been immersed in a 20 mM HEPES buffer (pH 7.4), and the filter was then washed three times with 300 μL of ice-cold 20 mM HEPES buffer (pH 7.4). A scintillation cocktail was added to the resulting filter, and membrane-bound radioactivity was then measured with a liquid scintillation counter.
The amount of [^35S]GTPγS bound in the case of carrying out the above described reaction in the absence of glutamic acid was defined as non-specific binding. The difference between such non-specific bound and the amount of [^35S]GTPγS bound in the presence of glutamic acid was defined as specific binding. Using non-linear analysis, a concentration-inhibition curve was produced. The concentration of the compound of each Example that caused 50% inhibition (IC50 value) of specific binding was determined from each concentration-inhibition curve.

T1 sequence (P31421 19-872): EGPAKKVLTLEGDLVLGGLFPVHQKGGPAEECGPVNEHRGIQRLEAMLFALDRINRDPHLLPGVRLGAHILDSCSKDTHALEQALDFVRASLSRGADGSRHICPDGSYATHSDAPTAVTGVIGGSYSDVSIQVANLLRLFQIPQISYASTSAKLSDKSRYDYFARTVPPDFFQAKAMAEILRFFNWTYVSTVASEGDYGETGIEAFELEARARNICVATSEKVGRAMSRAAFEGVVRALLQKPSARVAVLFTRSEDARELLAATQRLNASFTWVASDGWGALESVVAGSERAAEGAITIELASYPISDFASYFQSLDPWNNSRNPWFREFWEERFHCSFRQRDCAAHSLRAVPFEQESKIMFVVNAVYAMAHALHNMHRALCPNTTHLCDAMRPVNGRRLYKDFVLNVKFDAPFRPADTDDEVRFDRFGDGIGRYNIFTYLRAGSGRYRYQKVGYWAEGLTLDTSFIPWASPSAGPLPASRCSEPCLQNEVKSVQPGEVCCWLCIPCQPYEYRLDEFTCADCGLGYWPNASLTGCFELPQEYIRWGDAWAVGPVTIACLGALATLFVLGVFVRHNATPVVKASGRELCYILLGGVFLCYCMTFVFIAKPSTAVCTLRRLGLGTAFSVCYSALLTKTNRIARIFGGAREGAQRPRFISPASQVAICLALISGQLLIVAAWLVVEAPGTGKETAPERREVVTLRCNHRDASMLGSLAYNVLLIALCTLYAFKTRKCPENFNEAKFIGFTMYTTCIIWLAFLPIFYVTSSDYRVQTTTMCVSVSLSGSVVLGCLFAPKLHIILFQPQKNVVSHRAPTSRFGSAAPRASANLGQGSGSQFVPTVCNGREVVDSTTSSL

| IC50 | Structure (SMILES) |
| --- | --- |
| 98.5 nM | Cn1ncc(-c2nc(-c3cccc(S(N)(=O)=O)c3)no2)c1CCc1ccc(C(F)(F)F)cn1 [Example 8, 3-[5-(1-Methyl-5-{2-[5-(trifluoromethyl)pyridin-2-yl]ethyl}-1H-pyrazol-4-yl)-1,2,4-oxadiazol-3-yl]benzenesulfonamide] |
| 28.5 nM | Cn1ncc(-c2nc(-c3cccc(S(N)(=O)=O)c3)no2)c1CNc1ccc(C(F)(F)F)cc1 [Example 9] |
| 10.1 nM | Cn1ncc(-c2nc(-c3cccc(S(N)(=O)=O)c3)co2)c1CCc1ccc(C(F)(F)F)cc1 [Example 10, 3-[2-(1-Methyl-5-{2-[4-(trifluoromethyl)phenyl]ethyl}-1H-pyrazol-4-yl)-1,3-oxazol-4-yl]benzenesulfonamide] |
| 39.6 nM | Cn1ncc(-c2nc(-c3ccc(S(=O)(=O)O)cc3)no2)c1CCc1ccc(C(F)(F)F)cc1 [Example 15, 4-[5-(1-Methyl-5-{2-[4-(trifluoromethyl)phenyl]ethyl}-1H-pyrazol-4-yl)-1,2,4-oxadiazol-3-yl]benzenesulfonic acid] |
| 8.69 nM | Cn1ncc(-c2nc(-c3ccc(S(N)(=O)=O)cc3)no2)c1CCc1ccc(C(F)(F)F)cc1 [Example 19, 4-[5-(1-Methyl-5-{2-[4-(trifluoromethyl)phenyl]ethyl}-1H-pyrazol-4-yl)-1,2,4-oxadiazol-3-yl]benzenesulfonamide] |
| 14.8 nM | Cn1ncc(-c2nc(-c3cccc(S(N)(=O)=O)c3)no2)c1N1Cc2ccc(C(F)(F)F)cc2C1 [Example 21, 3-(5-{1-Methyl-5-[5-(trifluoromethyl)-1,3-dihydro-2H-isoindol-2-yl]-1H-pyrazol-4-yl}-1,2,4-oxadiazol-3-yl)benzenesulfonamide] |
| 27.5 nM | Cn1ncc(-c2nc(-c3cccc(S(N)(=O)=O)c3)no2)c1-c1cnn(-c2ccc(Cl)cc2)c1 [Example 25, 3-{5-[1′-(4-Chlorophenyl)-2-methyl-1′H,2H-3,4′-bipyrazol-4-yl]-1,2,4-oxadiazol-3-yl}benzenesulfonamide] |
| 22 nM | CN(C)CCNS(=O)(=O)c1ccc(-c2noc(-c3cnn(C)c3CCc3ccc(C(F)(F)F)cc3)n2)cc1 [Example 31, N-[2-(Dimethylamino)ethyl]-4-[5-(1-methyl-5-{2-[4-(trifluoromethyl)phenyl]ethyl}-1H-pyrazol-4-yl)-1,2,4-oxadiazol-3-yl]benzenesulfonamide] |
| 1.29 nM | Cn1ncc(-c2nc(-c3cccc(S(N)(=O)=O)c3)no2)c1COc1ccc(C(F)(F)F)cc1 [Example 37, 3-[5-(1-Methyl-5-{[4-(trifluoromethyl)phenoxy]methyl}-1H-pyrazol-4-yl)-1,2,4-oxadiazol-3-yl]benzenesulfonamide] |
| 12 nM | CCn1ncc(-c2nc(-c3cccc(S(N)(=O)=O)c3)no2)c1CCc1ccc(C(F)(F)F)cc1 [Example 39, 3-[5-(1-Ethyl-5-{2-[4-(trifluoromethyl)phenyl]ethyl}-1H-pyrazol-4-yl)-1,2,4-oxadiazol-3-yl]benzenesulfonamide] |
| 9.06 nM | NS(=O)(=O)c1cccc(-c2noc(-c3cnn(CF)c3CCc3ccc(C(F)(F)F)cc3)n2)c1 [Example 41, 3-{5-[1-(Fluoromethyl)-5-{2-[4-(trifluoromethyl)phenyl]ethyl}-1H-pyrazol-4-yl]-1,2,4-oxadiazol-3-yl}benzenesulfonamide] |
| 8.16 nM | Cc1ccc(OCc2c(-c3nc(-c4cccc(S(N)(=O)=O)c4)no3)cnn2C)cc1 [Example 51, 3-(5-{1-Methyl-5-[(4-methylphenoxy)methyl]-1H-pyrazol-4-yl}-1,2,4-oxadiazol-3-yl)benzenesulfonamide] |
| 44.7 nM | Cn1ncc(-c2nc(-c3ccc(S(N)(=O)=O)cc3)no2)c1OCc1ccc(C(F)(F)F)cc1 [Example 56, 4-[5-(1-Methyl-5-{[4-(trifluoromethyl)benzyl]oxy}-1H-pyrazol-4-yl)-1,2,4-oxadiazol-3-yl]benzenesulfonamide] |
| 4.29 nM | COc1cccc(OCc2c(-c3nc(-c4cccc(S(N)(=O)=O)c4)no3)cnn2C)c1 [Example 66, 3-(5-{5-[(3-Methoxyphenoxy)methyl]-1-methyl-1H-pyrazol-4-yl}-1,2,4-oxadiazol-3-yl)benzenesulfonamide] |
| 6.9 nM | Cn1ncc(-c2nc(-c3cccc(S(N)(=O)=O)c3)no2)c1COc1cccc(F)c1 [Example 68, 3-(5-{5-[(3-Fluorophenoxy)methyl]-1-methyl-1H-pyrazol-4-yl}-1,2,4-oxadiazol-3-yl)benzenesulfonamide] |
| 3.56 nM | Cn1ncc(-c2nc(-c3cccc(S(N)(=O)=O)c3)no2)c1COc1cccc(OC(F)(F)F)c1 [Example 69, 3-[5-(1-Methyl-5-{[3-(trifluoromethoxy)phenoxy]methyl}-1H-pyrazol-4-yl)-1,2,4-oxadiazol-3-yl]benzenesulfonamide] |
| 25.1 nM | Cn1ncc(-c2nc(-c3cccc(S(=O)(=O)O)c3)no2)c1COc1ccc(C(F)(F)F)cc1 [Example 134, 3-[5-(1-Methyl-5-{[4-(trifluoromethyl)phenoxy]methyl}-1H-pyrazol-4-yl)-1,2,4-oxadiazol-3-yl]benzenesulfonic acid] |
